For 1 molecule, inhibition results are on record in article PMC6934184, “Selective DNA-PKcs inhibition extends the therapeutic index of localized radiotherapy and chemotherapy” (The Journal of Clinical Investigation, 2019).

In general, inhibition refers to the relative decrease from the control value, in per cent.

The assay concerns the target T1, BRSK1 (SAD1) (Homo sapiens, UniProt Q8TDC3).
T1 construct: purchased Thermo Fisher Scientific (Life Technologies) SelectScreen
Kind of assay: SelectScreen Z'LYTE. Type of assay: biochemical. The procedure, abridged: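 NU5455 was profiled across the SelectScreen Broad panel of kinase activity and binding assays. Z'LYTE reactions such as CSF1R ran at apparent Km ATP, while the Adapta CAMK1 assay used ATP listed as 10. Values are given as percent.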

T1 sequence (Q8TDC3 whole entry): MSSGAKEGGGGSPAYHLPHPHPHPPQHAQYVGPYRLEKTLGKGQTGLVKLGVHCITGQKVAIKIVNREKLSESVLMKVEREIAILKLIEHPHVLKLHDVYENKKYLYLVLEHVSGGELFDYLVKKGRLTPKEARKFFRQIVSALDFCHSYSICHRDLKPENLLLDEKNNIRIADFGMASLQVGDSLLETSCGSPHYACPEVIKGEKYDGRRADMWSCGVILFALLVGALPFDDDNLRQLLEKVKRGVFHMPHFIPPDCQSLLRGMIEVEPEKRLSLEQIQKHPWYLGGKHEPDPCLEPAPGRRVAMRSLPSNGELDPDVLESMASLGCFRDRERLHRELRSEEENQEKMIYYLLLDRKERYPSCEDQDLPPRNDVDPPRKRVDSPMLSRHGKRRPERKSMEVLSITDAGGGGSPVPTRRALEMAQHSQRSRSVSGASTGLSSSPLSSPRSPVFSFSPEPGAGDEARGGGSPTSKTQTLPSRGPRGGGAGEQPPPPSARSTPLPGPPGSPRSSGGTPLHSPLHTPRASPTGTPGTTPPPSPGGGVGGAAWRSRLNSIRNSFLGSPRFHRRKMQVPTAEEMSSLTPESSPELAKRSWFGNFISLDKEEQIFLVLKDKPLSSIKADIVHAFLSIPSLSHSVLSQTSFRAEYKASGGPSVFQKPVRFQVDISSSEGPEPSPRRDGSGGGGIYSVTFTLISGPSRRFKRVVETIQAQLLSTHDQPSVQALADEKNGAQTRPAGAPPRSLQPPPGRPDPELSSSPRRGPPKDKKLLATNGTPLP

`CN(C(=O)CN1CCOCC1)c1ccc2sc3c(-c4cccc5c(=O)cc(N6CC7CCC(C6)O7)oc45)cccc3c2c1` [NU5455]: the inhibition at 1 µM was -1.1%.
